Biological target: T1, Human Factor D (Homo sapiens, UniProt P00746)
T1 construct: purified from human serum
Experiment: Human Factor D Assay
Assay type: biochemical
Settings: Human Factor D 80 nM, substrate Z-L-Lys-SBzl, assay of Example 12
Description: Human Factor D (purified from human serum, Complement Technology, Inc.) at 80 nM final concentration was incubated with test compound at various concentrations for 5 minutes at room temperature in 50 mM Tris, 1M NaCl, pH 7.5. A synthetic substrate Z-L-Lys-SBzl and DTNB (Ellman's reagent) are added to final concentrations of 100 μM each. Absorbance at 405 nm (A405) was recorded at 30 second intervals for 30 minutes using a microplate spectrophotometer. IC50 values are calculated by nonlinear regression of complement Factor D reaction rates as a function of test compound concentration.
The assay of Example 12 was used to determine the IC50's of the compounds. Other standard Factor D inhibition assays are also available.

T1 sequence (P00746 26-253): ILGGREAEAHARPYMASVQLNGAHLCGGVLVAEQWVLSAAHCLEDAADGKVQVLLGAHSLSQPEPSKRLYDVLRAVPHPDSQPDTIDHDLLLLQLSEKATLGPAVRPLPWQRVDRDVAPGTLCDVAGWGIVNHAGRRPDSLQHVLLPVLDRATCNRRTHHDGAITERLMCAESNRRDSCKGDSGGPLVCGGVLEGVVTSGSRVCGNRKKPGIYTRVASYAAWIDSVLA

IC50: > 10 µM
Structure (SMILES): Cc1cccc(NC(=O)[C@@H]2CC=CCN2C(=O)Cn2cc(C(N)=O)c3cc(Nc4cccnn4)ccc32)n1 [compound 1, (S)-1-(2-(6-((6-methylpyridin-2-yl)carbamoyl)-5,6-dihydropyridin-1(2H)-yl)-2-oxoethyl)-5-(pyridazin-3-ylamino)-1H-indole-3-carboxamide]
